According to ChEMBL document CHEMBL4725402, “Discovery of thiapyran-pyrimidine derivatives as potential EGFR inhibitors” (Bioorg Med Chem, 2020):
pIC50: −log10 of the molar value. One block for each molecule: values may come before it. The source made the active and inactive calls. No cut-off for these calls is given here.

How the values were obtained:
Homo sapiens = organism: Homo sapiens; test: Inhibition of PI3K (unknown origin) at 1 uM relative to control
[1] = target: Serine/threonine-protein kinase mTOR (Homo sapiens) (UniProt P42345); test: Inhibition of mTOR (unknown origin) at 1 uM relative to control
[2] = target: Hepatocyte growth factor receptor (Homo sapiens) (UniProt P08581); test: Inhibition of C-MET (unknown origin) at 1 uM relative to control
Sequence of Hepatocyte growth factor receptor (Homo sapiens) (P08581 whole entry): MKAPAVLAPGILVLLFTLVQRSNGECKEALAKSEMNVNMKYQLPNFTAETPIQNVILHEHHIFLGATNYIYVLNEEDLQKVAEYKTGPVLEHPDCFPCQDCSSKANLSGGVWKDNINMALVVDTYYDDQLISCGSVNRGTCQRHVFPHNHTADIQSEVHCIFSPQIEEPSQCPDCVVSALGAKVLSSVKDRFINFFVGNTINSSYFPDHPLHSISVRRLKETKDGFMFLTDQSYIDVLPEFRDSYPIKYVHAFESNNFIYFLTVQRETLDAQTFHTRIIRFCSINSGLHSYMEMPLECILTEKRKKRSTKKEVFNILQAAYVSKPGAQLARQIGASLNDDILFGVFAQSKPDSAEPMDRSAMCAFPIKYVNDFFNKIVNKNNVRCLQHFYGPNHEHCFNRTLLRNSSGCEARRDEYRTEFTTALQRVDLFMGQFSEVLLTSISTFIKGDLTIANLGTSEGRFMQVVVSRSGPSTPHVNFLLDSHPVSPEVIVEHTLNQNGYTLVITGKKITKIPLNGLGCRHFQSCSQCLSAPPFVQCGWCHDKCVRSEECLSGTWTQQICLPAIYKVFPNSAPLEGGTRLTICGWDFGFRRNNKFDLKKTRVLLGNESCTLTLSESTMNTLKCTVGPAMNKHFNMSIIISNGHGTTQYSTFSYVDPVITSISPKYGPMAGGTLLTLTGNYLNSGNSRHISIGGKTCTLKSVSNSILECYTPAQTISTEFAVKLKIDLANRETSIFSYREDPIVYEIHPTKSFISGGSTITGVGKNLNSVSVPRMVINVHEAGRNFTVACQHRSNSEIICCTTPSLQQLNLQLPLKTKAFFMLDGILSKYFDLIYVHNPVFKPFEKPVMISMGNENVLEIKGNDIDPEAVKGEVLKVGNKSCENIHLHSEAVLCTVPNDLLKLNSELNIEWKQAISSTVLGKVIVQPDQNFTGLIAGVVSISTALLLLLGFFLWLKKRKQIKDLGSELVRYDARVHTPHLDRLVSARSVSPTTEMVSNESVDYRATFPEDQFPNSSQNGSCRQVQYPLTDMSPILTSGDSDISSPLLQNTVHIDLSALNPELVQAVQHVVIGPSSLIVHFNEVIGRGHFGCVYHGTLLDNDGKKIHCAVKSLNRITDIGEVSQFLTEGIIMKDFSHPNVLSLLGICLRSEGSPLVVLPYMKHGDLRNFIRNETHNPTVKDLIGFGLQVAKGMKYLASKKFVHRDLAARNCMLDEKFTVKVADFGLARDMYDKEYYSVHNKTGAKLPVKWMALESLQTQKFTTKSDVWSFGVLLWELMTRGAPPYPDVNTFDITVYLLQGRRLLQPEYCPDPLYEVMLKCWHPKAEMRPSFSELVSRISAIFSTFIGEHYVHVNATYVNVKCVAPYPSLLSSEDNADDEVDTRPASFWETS

[3] = target: Vascular endothelial growth factor receptor 2 (Homo sapiens) (UniProt P35968); test: Inhibition of KDR (unknown origin) at 1 uM relative to control
Sequence of Vascular endothelial growth factor receptor 2 (Homo sapiens) (P35968 whole entry): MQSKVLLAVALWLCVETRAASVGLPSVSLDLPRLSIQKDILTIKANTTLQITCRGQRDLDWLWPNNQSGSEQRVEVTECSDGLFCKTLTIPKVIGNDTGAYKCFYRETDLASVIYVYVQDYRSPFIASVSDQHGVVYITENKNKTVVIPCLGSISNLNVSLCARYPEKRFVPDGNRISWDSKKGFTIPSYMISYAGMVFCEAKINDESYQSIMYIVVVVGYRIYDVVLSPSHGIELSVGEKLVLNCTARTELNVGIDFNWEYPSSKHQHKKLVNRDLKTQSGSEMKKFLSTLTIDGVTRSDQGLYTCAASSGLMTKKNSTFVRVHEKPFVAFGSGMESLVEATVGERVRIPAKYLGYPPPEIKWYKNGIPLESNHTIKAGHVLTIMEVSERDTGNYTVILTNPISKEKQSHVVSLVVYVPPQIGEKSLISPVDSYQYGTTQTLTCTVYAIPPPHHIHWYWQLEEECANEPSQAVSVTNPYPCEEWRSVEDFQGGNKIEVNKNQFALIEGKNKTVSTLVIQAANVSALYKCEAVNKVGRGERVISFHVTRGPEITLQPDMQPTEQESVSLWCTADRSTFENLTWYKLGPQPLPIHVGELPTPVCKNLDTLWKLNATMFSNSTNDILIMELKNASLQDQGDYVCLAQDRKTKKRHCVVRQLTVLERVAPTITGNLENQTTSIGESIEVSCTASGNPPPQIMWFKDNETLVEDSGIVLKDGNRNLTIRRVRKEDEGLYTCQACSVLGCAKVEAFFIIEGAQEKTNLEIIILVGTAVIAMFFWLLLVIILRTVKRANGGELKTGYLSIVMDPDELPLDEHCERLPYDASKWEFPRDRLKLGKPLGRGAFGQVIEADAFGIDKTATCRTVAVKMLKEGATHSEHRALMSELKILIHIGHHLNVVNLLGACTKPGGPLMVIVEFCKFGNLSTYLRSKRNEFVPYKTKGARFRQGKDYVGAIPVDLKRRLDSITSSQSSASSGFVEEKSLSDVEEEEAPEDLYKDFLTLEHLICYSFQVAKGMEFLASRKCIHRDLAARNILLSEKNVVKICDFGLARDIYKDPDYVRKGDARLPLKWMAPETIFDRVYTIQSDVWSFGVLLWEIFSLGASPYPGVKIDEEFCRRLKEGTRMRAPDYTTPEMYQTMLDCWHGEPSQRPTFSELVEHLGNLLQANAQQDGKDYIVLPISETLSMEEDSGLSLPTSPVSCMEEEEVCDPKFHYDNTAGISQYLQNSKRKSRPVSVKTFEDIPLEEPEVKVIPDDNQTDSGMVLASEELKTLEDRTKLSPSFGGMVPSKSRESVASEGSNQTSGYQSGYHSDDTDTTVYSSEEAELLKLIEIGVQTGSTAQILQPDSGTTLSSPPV

NCI-H1975 [4] = test: Induction of apoptosis in human H1975 cells assessed as necrotic cells at 5 uM incubated for 48 hrs Annexin V-FITC staining based flow cytometric analysis (reference value: 0.08 %); format: functional
NCI-H1975 [5] = test: Induction of apoptosis in human H1975 cells assessed as late apoptotic cells at 5 uM incubated for 48 hrs Annexin V-FITC staining based flow cytometric analysis (reference value: 1.77 %); format: functional
NCI-H1975 [6] = test: Induction of apoptosis in human H1975 cells assessed as live cells at 5 uM incubated for 48 hrs Annexin V-FITC staining based flow cytometric analysis (reference value: 96.09 %); format: functional
NCI-H1975 [7] = test: Induction of apoptosis in human H1975 cells assessed as early apoptotic cells at 5 uM incubated for 48 hrs Annexin V-FITC staining based flow cytometric analysis (reference value: 2.06 %); format: functional
A549 [8] = test: Cell cycle arrest in human A549 cells assessed as accumulation at G0/G1 phase at 5 uM incubated for 48 hrs […] staining based flow cytometric analysis (reference value: 74.69 %); format: functional
A549 [9] = test: Cell cycle arrest in human A549 cells assessed as accumulation at S phase at 5 uM incubated for 48 hrs […] staining based flow cytometric analysis (reference value: 22.64 %); format: functional
A549 [10] = test: Cell cycle arrest in human A549 cells assessed as accumulation at G2/M phase at 5 uM incubated for 48 hrs […] staining based flow cytometric analysis (reference value: 2.67 %); format: functional
A549 [11] = test: Antiproliferation activity against human A549 cells assessed as reduction in cell viability measured after 72 hrs by MTT assay; format: functional, cell-based; conditions: A549, 72 h
NCI-H1975 [12] = test: Antiproliferation activity against human NCI-H1975 cells harboring EGFR T790M/L858R mutation assessed as reduction in cell viability measured after 72 hrs by MTT assay; format: functional, cell-based; conditions: NCI-H1975, 72 h
HeLa = test: Antiproliferation activity against human HeLa cells assessed as reduction in cell viability measured after 72 hrs by MTT assay; format: functional, cell-based
MCF7 = test: Antiproliferation activity against human MCF7 cells assessed as reduction in cell viability measured after 72 hrs by MTT assay; format: functional, cell-based; conditions: MCF7, 72 h
L02 = test: Cytotoxicity against human L02 cells assessed as reduction in cell viability measured after 72 hrs by MTT assay; format: cell-based; conditions: L02, 72 h
[13] = Selectivity index, ratio of IC50 for human L02 cells to IC50 for human A549 cells assessed as reduction in cell viability measured after 72 hrs by MTT assay; format: toxicity; conditions: L02 cells versus A549 cells, read-out: Ratio IC50
[14] = target: Epidermal growth factor receptor (Homo sapiens, UniProt P00533); test: Inhibition of wild type EGFR (unknown origin) using FAM-labelled peptide as substrate incubated for 10 mins in presence of ATP by Kinase Glo luminescence assay
Sequence of Epidermal growth factor receptor (Homo sapiens, UniProt P00533) (P00533 whole entry): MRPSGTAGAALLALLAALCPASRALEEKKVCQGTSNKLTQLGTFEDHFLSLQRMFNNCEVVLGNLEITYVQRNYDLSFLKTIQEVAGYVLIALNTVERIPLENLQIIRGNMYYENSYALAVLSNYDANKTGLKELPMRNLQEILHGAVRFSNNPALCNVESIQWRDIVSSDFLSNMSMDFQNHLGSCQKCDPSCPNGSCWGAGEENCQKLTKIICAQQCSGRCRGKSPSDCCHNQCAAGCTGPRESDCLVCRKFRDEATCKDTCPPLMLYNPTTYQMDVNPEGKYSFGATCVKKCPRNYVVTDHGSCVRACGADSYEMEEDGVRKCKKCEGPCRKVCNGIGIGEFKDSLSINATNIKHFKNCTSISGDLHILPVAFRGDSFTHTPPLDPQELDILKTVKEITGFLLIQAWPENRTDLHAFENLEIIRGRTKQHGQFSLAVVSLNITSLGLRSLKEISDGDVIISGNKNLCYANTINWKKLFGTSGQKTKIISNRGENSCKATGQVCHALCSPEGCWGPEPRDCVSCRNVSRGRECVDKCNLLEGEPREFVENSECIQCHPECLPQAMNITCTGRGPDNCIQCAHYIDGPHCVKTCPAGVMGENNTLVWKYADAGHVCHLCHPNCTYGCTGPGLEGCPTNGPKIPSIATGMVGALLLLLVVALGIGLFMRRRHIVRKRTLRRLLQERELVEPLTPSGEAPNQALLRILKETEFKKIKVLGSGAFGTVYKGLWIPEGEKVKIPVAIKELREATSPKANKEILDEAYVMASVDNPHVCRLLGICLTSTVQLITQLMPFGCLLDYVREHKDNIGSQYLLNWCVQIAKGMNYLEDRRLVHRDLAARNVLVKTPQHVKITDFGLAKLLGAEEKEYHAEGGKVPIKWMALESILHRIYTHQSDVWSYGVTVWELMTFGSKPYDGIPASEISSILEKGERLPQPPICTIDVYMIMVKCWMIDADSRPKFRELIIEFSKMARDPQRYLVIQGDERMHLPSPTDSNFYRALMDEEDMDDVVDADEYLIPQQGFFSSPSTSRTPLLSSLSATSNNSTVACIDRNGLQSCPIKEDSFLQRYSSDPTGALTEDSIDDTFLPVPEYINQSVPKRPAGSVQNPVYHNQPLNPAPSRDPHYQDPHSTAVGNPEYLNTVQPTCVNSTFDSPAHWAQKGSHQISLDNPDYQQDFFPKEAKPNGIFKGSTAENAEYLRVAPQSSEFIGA

[15] = target: Epidermal growth factor receptor (Homo sapiens, UniProt P00533, T790M); test: Inhibition of EGFR T790M mutant (unknown origin) using FAM-labelled peptide as substrate incubated for 10 mins fin presence of ATP by Kinase Glo luminescence assay
[16] = target: Epidermal growth factor receptor (Homo sapiens, UniProt P00533, L858R/T790M); test: Inhibition of EGFR T790M/L858R mutant (unknown origin) using FAM-labelled peptide as substrate incubated for 10 mins in presence of ATP by Kinase Glo luminescence assay
Sequence of Epidermal growth factor receptor (Homo sapiens, UniProt P00533, L858R/T790M) (P00533 25-1210 T790M/L858R limits assumed): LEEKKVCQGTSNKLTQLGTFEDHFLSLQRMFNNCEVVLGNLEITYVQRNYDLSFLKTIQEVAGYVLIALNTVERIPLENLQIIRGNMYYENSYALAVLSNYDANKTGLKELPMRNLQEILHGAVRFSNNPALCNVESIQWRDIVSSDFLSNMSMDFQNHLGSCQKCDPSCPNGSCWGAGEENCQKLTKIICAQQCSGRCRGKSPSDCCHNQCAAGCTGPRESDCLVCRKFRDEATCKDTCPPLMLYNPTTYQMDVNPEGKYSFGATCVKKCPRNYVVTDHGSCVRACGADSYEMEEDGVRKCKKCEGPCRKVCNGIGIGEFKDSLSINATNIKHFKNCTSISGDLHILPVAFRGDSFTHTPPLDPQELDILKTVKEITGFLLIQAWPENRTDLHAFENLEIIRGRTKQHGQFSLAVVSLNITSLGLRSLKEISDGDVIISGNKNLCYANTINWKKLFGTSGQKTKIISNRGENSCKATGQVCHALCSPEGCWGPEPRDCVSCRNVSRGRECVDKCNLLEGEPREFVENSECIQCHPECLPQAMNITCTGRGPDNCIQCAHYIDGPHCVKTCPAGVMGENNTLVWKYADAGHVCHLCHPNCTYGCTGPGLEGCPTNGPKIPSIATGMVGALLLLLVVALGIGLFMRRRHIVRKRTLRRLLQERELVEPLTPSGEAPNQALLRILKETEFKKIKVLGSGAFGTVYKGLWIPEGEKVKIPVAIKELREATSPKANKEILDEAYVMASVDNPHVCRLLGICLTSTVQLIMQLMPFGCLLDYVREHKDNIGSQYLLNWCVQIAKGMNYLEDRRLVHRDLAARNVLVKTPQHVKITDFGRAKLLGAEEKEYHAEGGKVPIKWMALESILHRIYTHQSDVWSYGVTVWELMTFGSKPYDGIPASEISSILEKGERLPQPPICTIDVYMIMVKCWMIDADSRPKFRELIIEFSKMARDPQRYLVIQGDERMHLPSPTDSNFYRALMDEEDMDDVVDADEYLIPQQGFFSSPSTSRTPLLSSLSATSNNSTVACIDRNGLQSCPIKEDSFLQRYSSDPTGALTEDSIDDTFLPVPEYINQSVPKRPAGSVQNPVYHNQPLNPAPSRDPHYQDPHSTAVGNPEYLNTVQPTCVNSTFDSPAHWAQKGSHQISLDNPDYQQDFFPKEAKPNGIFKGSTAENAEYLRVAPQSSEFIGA

NCI-H1975 [17] = test: Induction of morphological changes in human H1975 cells assessed as chromatin shrinkage and apoptotic body formation at 0.01 to 0.10 uM incubated for 6 hrs by AO staining-based fluorescent microscopic analysis; format: functional, cell-based; conditions: dose microM 0.01-0.10, time 6.0 hrs
NCI-H1975 [18] = test: Induction of morphological changes in human H1975 cells assessed as chromatin agglutination in nucleus at 0.01 to 0.10 uM incubated for 6 hrs by Hoechst33258 staining-based fluorescent microscopic analysis; format: functional, cell-based; conditions: dose microM 0.01-0.10, time 6.0 hrs
NCI-H1975 [19] = test: Induction of morphological changes in human H1975 cells assessed as dense nuclei staining at 0.01 to 0.10 uM incubated for 6 hrs by Hoechst 33258 staining-based fluorescent microscopic analysis; format: functional, cell-based; conditions: dose microM 0.01-0.10, time 6.0 hrs
NCI-H1975 [20] = test: Induction of apoptosis in human H1975 cells assessed as late apoptotic cells at 1 to 10 uM incubated for 48 hrs Annexin V-FITC staining based flow cytometric analysis; format: functional, cell-based; conditions: dose microM 1-10, time […]
NCI-H1975 [21] = test: Induction of apoptosis in human H1975 cells assessed as necrotic cells at 1 uM incubated for 48 hrs Annexin V-FITC staining based flow cytometric analysis (reference value: 0.08 %); format: functional
NCI-H1975 [22] = test: Induction of apoptosis in human H1975 cells assessed as late apoptotic cells at 1 uM incubated for 48 hrs Annexin V-FITC staining based flow cytometric analysis (reference value: 1.77 %); format: functional
NCI-H1975 [23] = test: Induction of apoptosis in human H1975 cells assessed as live cells at 1 uM incubated for 48 hrs Annexin V-FITC staining based flow cytometric analysis (reference value: 96.09 %); format: functional
NCI-H1975 [24] = test: Induction of apoptosis in human H1975 cells assessed as early apoptotic cells at 1 uM incubated for 48 hrs Annexin V-FITC staining based flow cytometric analysis (reference value: 2.06 %); format: functional
NCI-H1975 [25] = test: Induction of apoptosis in human H1975 cells assessed as necrotic cells at 10 uM incubated for 48 hrs Annexin V-FITC staining based flow cytometric analysis (reference value: 0.08 %); format: functional
NCI-H1975 [26] = test: Induction of apoptosis in human H1975 cells assessed as late apoptotic cells at 10 uM incubated for 48 hrs Annexin V-FITC staining based flow cytometric analysis (reference value: 1.77 %); format: functional
NCI-H1975 [27] = test: Induction of apoptosis in human H1975 cells assessed as live cells at 10 uM incubated for 48 hrs Annexin V-FITC staining based flow cytometric analysis (reference value: 96.09 %); format: functional
NCI-H1975 [28] = test: Induction of apoptosis in human H1975 cells assessed as early apoptotic cells at 10 uM incubated for 48 hrs Annexin V-FITC staining based flow cytometric analysis (reference value: 2.06 %); format: functional
A549 [29] = test: Cell cycle arrest in human A549 cells assessed as accumulation at G0/G1 phase at 1 uM incubated for 48 hrs […] staining based flow cytometric analysis (reference value: 74.69 %); format: functional
A549 [30] = test: Cell cycle arrest in human A549 cells assessed as accumulation at S phase at 1 uM incubated for 48 hrs […] staining based flow cytometric analysis (reference value: 22.64 %); format: functional
A549 [31] = test: Cell cycle arrest in human A549 cells assessed as accumulation at G2/M phase at 1 uM incubated for 48 hrs […] staining based flow cytometric analysis (reference value: 2.67 %); format: functional
A549 [32] = test: Cell cycle arrest in human A549 cells assessed as accumulation at G0/G1 phase at 10 uM incubated for 48 hrs […] staining based flow cytometric analysis (reference value: 74.69 %); format: functional
A549 [33] = test: Cell cycle arrest in human A549 cells assessed as accumulation at S phase at 10 uM incubated for 48 hrs […] staining based flow cytometric analysis (reference value: 22.64 %); format: functional
A549 [34] = test: Cell cycle arrest in human A549 cells assessed as accumulation at G2/M phase at 10 uM incubated for 48 hrs […] staining based flow cytometric analysis (reference value: 2.67 %); format: functional
A549 [35] = test: Cell cycle arrest in human A549 cells assessed as accumulation at G2/M phase at 1 to 10 uM incubated for 48 hrs […] staining based flow cytometric analysis; format: functional; conditions: dose microM 1-10, time […]

- inhibition (Homo sapiens): inactive
- inhibition [1]: inactive
- inhibition [2]: 7.1%
- inhibition [3]: inactive
SMILES: C=CC(=O)Nc1cccc(Oc2nc(Nc3ccc(N4CCN(C)CC4)cc3)nc3ccsc23)c1 [OLMUTINIB]
- Activity (NCI-H1975 [4]): 0.34%
- Activity (NCI-H1975 [5]): 10.76%
- Activity (NCI-H1975 [6]): 84.27%
- Activity (NCI-H1975 [7]): 4.63%
- Activity (A549 [8]): 76.63%
- Activity (A549 [9]): 14.65%
- Activity (A549 [10]): 8.72%

- pIC50 (A549 [11]): 5.37
- pIC50 (NCI-H1975 [12]): 5.66
- pIC50 (HeLa): 4.68
- pIC50 (MCF7): 4.93
- inhibition (Homo sapiens): 48.1%
- inhibition [1]: -1.2%
- inhibition [2]: 0.5%
- inhibition [3]: 3.9%
- pIC50 [14]: < 6.00
- pIC50 [15]: 6.27
- pIC50 [16]: 6.88
SMILES: C=CC(=O)Nc1cccc(Oc2nc(Nc3ccc(OC)cc3)nc3c2CSCC3)c1
- pIC50 (L02): < 4.30
- selectivity ratio at 72 h [13]: > 11.8
- Activity (NCI-H1975 [17]): Active
- Activity (NCI-H1975 [18]): Active
- Activity (NCI-H1975 [19]): Active
- Activity (NCI-H1975 [20]): Dose-dependent effect
- Activity (NCI-H1975 [21]): 0.85%
- Activity (NCI-H1975 [22]): 8.23%
- Activity (NCI-H1975 [23]): 87.16%
- Activity (NCI-H1975 [24]): 3.76%
- Activity (NCI-H1975 [4]): 0.6%
- Activity (NCI-H1975 [5]): 10.7%
- Activity (NCI-H1975 [6]): 81.2%
- Activity (NCI-H1975 [7]): 7.5%
- Activity (NCI-H1975 [25]): 0.58%
- Activity (NCI-H1975 [26]): 15.46%
- Activity (NCI-H1975 [27]): 78.76%
- Activity (NCI-H1975 [28]): 5.2%
- Activity (A549 [29]): 71.16%
- Activity (A549 [30]): 20.22%
- Activity (A549 [31]): 8.62%
- Activity (A549 [8]): 74.87%
- Activity (A549 [9]): 14.44%
- Activity (A549 [10]): 10.69%
- Activity (A549 [32]): 62.57%
- Activity (A549 [33]): 14.2%
- Activity (A549 [34]): 23.23%
- Activity (A549 [35]): Dose-dependent effect
